# In a melting point compilation (Tetko et al.; mined from patent text by program, amines drawn as free bases though some values may be those of a salt):
row,Compound,melting point
1,COc1cc(Br)ccc1N,56.5 to 58 °C
2,Cn1ncc2c1-c1c(Nc3ccccc3)sc(C(N)=O)c1CC2,140 to 141 °C
3,Cc1nc2ccccn2c(=O)c1CCN1CCN(C(=NNc2ccccc2)c2ccccc2F)CC1,180 °C
4,CCC(CC)(OCc1oc(-c2ccc(Cl)cc2)nc1C)C(=O)O,157 °C
5,CNC1(Cc2ccccc2)C(=O)Nc2ccc(Cl)cc21 (stereo not drawn),196 °C
6,NC(=O)NC(=S)Nc1ccccc1,176 to 180 °C
7,C=CCC1(C(=O)OC)C(=O)Nc2ccccc2CC1c1ccc(OC)cc1 (stereo not drawn),175 to 176 °C
8,CCCCCCC(C)(C)c1ccc(C2=CCCN(CC3CC3)C2)c(O)c1,118 °C
9,CC(=O)c1ccc(Oc2ccc(C(C)=O)cc2)cc1,102 °C
10,NN(Cc1ccc(Cl)cc1)c1ccc(OCc2ccc3ccccc3n2)cc1,130 °C
11,O=c1ccc2c(-c3cccs3)nccc2[nH]1,238 to 240 °C
12,CCCc1c(OCCCOc2c(C(C)=O)ccc(OCCCC(=O)O)c2CCC)ccc(C(C)=O)c1O,96 to 99 °C
13,CCCc1nc(C(C)=O)c(C#N)[nH]1,93 to 95 °C
14,Cc1nc2cc(Oc3cc(-c4ccc(C(C)(C)C)cc4)ncn3)ccc2s1,163 to 165 °C
15,N#Cc1ccc(CO)cc1F,70 to 72 °C
16,CC(C)(N)CCn1c(=O)oc2ccccc21,145 to 147 °C
17,O=Cc1ncn2c1[C@@H]1CCCN1C(=O)c1c(Cl)cccc1-2,224 to 225 °C
18,COC(=O)Cc1c(O)nc(C)nc1O,> 200 °C
19,Nc1cccc(-c2ccc(CCN3CCN(C(=O)COc4ccccc4)CC3)cc2)n1,127 to 130 °C
20,CCc1c(NC(=O)c2cc(S(C)(=O)=O)ccc2OCC(C)C)c(C(N)=O)nn1C1CCN(C(=O)OC(C)(C)C)CC1,134 to 141 °C

row,Compound,melting point
1,CCCc1c(C(=O)NCc2ccc(-c3ccc(OCC#N)c(Br)c3)cc2)cnn1-c1ccccc1,102 to 109 °C
2,O=S(=O)(c1ccc(Oc2ccccc2)cc1)N1CC1,136 to 138 °C
3,COC(=O)CCc1cc2c(s1)NC(=S)C(C)N=C2c1ccccc1Cl (stereo not drawn),198 to 200 °C
4,[O-][N+](=Cc1ccc(OCc2ccccc2)cc1)C1CCCCCCC1,108 °C
5,O=C(O)c1ccc(-c2ccoc2)s1,147 °C
6,CC1CC2=C(CCC(Cc3ccc(O)cc3)C2)NC1=O (stereo not drawn),230 to 235 °C
7,O=S(=O)(c1ccc(F)cc1)N1CCC(Nc2nc(OCC(F)(F)F)nc(-c3ccc(F)cc3)n2)CC1,183 to 185 °C
8,CCN(CC)C(=O)c1ccc(-c2nc(=O)c3ccccc3s2)nc1,193 °C
9,CC1(CO)OCC2(CO1)COC(C)(CO)OC2 (stereo not drawn),127 to 128 °C
10,O=C(O)CCSC1c2cc(OCc3ccc4ccc(Cl)cc4n3)ccc2OCc2c(-c3nnn[nH]3)cccc21 (stereo not drawn),122 to 125 °C
11,CC1(C)CCC(C)(C)c2cc(-c3cc(-c4ccc(C(=O)O)cc4)ccc3OCCCCCCCCO)ccc21,155 to 160 °C
12,COC(=O)C1=Cc2cc(-c3ccc(C)cc3)ccc2S(=O)(=O)CC1,203 to 204 °C
13,O=C(c1ccc(NC(=O)C(O)(C(F)F)C(F)F)cc1)c1ccccn1,158 to 161 °C
14,Fc1cc(F)c2c(c1)CC(n1c(-c3nnn[nH]3)c[nH]c1=S)CC2 (stereo not drawn),214 to 215 °C
15,NS(=O)(=O)c1cccc(-c2noc(-c3cnn4c(C(F)(F)F)cc(-c5cccc(C(F)(F)F)c5)nc34)n2)c1,251 °C
16,c1ccc2c(c1)Oc1ccccc1-n1nnnc1-2,206 to 208 °C
17,CN1CCN(NC(=O)Nc2cccc3c2C(=O)c2c-3n[nH]c2-c2ccc(N3CCNCC3)cc2)CC1,254 °C
18,Cc1ccc(N2CCOCC2)c(N=C=S)c1,91 to 92 °C
19,CC12CC(c3ccc(OS(=O)(=O)C(F)(F)F)cc3)C3C4CCC5(CC4=CCC3C1CCC2=O)OCCO5 (stereo not drawn),208 to 210 °C
20,CC(=O)c1cc(Cl)c(N)cc1F,97 to 98 °C

row,Compound,melting point
1,CN(C)c1ccc(-c2nc(Cl)c3ccccc3n2)cc1,167 to 170 °C
2,O=C(O)CS(=O)c1cccc(-c2nc(=O)c3ccccc3s2)n1 (stereo not drawn),186 to 188 °C
3,C#CC1=Cc2ccccc2Sc2ccc(S(C)(=O)=O)cc21,140 to 143 °C
4,C#CC(O)COc1ccc(F)cc1 (stereo not drawn),46 to 47 °C
5,CCCNC(=O)c1cnc2cccc(C)n2c1=O,158 to 160 °C
6,CC1OC2(CCN(c3nc(=O)c4cc(C(F)(F)F)cc([N+](=O)[O-])c4s3)CC2)OC1C (stereo not drawn),205 to 207 °C
7,Clc1ccc(/C=C/C2=CCN(Cc3ccccc3)CC2)cn1,126 to 128 °C
8,Nc1cccc(S(=O)(=O)C(F)(F)C(F)Cl)c1 (stereo not drawn),66 to 67.5 °C
9,COc1cccc(C=O)c1,83 to 84 °C
10,CCCc1c(OCCCSc2nnc(SCC(=O)O)s2)ccc(C(C)=O)c1O,129 to 130 °C
11,"O=C(NC(CS)Cc1ccccc1)N1CCN(c2ccc(Cl)cc2)CC1 (single isomer, unassigned; (+))",148 °C
12,N#Cc1cnc(N)nc1-c1ccc(Cl)cc1C(=O)c1ccccc1F,153 to 157 °C
13,CC(=O)Nc1ccc(NC(=O)N(C[C@H]2CC[C@H](CN(C(=O)Nc3ccc(NC(C)=O)cc3)C3CCCCC3)CC2)C2CCCCC2)cc1,228 to 231 °C
14,COc1ccc(C=Cc2oc3ccc(C#N)cc3c2C(C)=O)cc1,190 to 191 °C
15,O=C(O)CCCCCCCn1ccnc1,91 to 94 °C
16,CCCCCCC(C)(C)c1ccc(Br)c(OCc2ccccc2)c1,58 to 59 °C
17,CCOC(=O)CC(C(=O)c1ccc(OC2CCN(C(=O)OC(C)(C)C)CC2)cc1)c1ccccn1 (stereo not drawn),118 to 120 °C
18,COc1cc(OC)c(-c2cccs2)cc1C=O,125 to 126 °C

# Other lines, results leading:
row,melting point,Compound
1,173 °C,O=C(NC1CCn2c(CCc3ccccc3)nc3cccc1c32)c1ccccn1 (stereo not drawn)
2,165 °C,O=C(O)c1csc(-c2cccc(Cn3cc(C4c5ccccc5C=Cc5ccccc54)c(=S)[nH]c3=O)c2)n1
3,144 to 145 °C,COc1cc(C#N)cc(Br)c1O
4,225 to 226 °C,COc1ccc(C=CC(=O)Nc2cccc(C(=O)O)c2)cc1OC
5,254 to 255 °C,O=c1c(/C=C/c2nnn[nH]2)coc2ccccc12
6,> 300 °C,O=C(O)c1ccc2c(c1)C(=O)CC(c1ccccc1)=N2
7,165 to 168 °C,COc1cccc2c1-c1ccc(NS(C)(=O)=O)cc1C(c1cccc(N(C)C(C)=O)c1)O2 (stereo not drawn)
8,124 to 126 °C,O=C(NCCN1CCCC1)Nc1ccc(-c2cnc(COCc3cc4ccccc4o3)o2)cc1
9,154 to 155 °C,CC1(C)Oc2ccsc2C(N2CCCC2=O)C1O (stereo not drawn)
10,240 to 242 °C,COc1ccc(OC)c2c(Nc3ccc(C)c(O)c3)c(C#N)cnc12
11,215 °C,CCOc1cc(-c2cc(C(F)(F)F)n3ncc(C(=O)Nc4cccc(S(C)(=O)=O)c4)c3n2)ccc1C(F)(F)F
12,120 to 122 °C,CC(Nc1nc(NN)nc(Cl)c1-c1c(F)cccc1Cl)C(F)(F)F (stereo not drawn)
13,102 to 108 °C,O=c1c(Br)c(O)ccn1Cc1ccc(O)cc1
14,56 to 58 °C,COC(=O)c1cscc1OC(C)=O
15,235 to 236 °C,O=C(Nc1cc(Cl)cc(Cl)c1)c1ccccc1SSc1ccccc1C(=O)Nc1cc(Cl)cc(Cl)c1
16,222 to 228 °C,CCOP(=O)(Cc1nnc2c(=O)[nH]c3cc(C(F)(F)F)c([N+](=O)[O-])cc3n12)OCC
17,229 to 234 °C,CC(C)(C)NS(=O)(=O)c1ccc2c(c1)C=C(C(=O)O)C(C(F)(F)F)O2 (stereo not drawn)
18,184 °C,O=[N+]([O-])c1ccc2c(c1)CN[C@H](CO)C2
19,78 to 80 °C,COc1ccc2c(c1)C(=O)C(=O)C=C2
20,161 to 162 °C,CC(C)Cn1c(=O)n(C)c(=O)c2c(S(=O)(=O)N3CC[C@@H](O)C3)c(Cc3cccnc3)sc21
21,94 to 96 °C,CNC(=O)CCn1ncccc1=O
22,115 to 118 °C,Fc1ccc(C(=C(c2ccccc2)c2ccc(OCCBr)cc2)C(F)(F)F)cc1
23,148 to 150 °C,CNC(=O)CCCCSc1nccc(NC(N)=NCC(F)(F)F)n1

row,melting point,Compound
1,143 to 144 °C,CCOC(=O)c1cn(C)c2cc(C)sc2c1=O
2,128 to 131 °C,Cc1ccc(-c2ccc(CO)cc2)cc1
3,169 to 171 °C,O=C(NCc1cccnc1)c1ccc2n1Cc1ccccc1N(C(=O)COc1ccc(Cl)cc1)C2
4,99 to 100 °C,COCCNc1cc(-c2c(-c3cccc(C)c3)nc3cccnn23)ccn1
5,148 to 152 °C,CCOC(=O)c1cc(=O)cc(-c2cccc([N+](=O)[O-])c2)o1
6,206 °C,N#Cc1c(N)nc2ccccc2c1NCc1ccco1
7,268 to 270 °C,COC(=O)c1cc(-c2c(-c3ccccc3)nn3ccccc23)cn(C)c1=O
8,181 to 183 °C,COc1cccc(-c2c(C3CCN(C)CC3)[nH]c(=O)c3ccccc23)c1
9,206 °C,CNC(=O)C=C(C)C=CC=C(C)C=Cc1c(C)cc(OC)c(C)c1C
10,53 to 54 °C,COc1ccc(CCCl)cc1O
11,156 to 158 °C,Nc1ncc(Br)c(NCC2(CO)CCC2)n1
12,177 to 180 °C,CCn1cc(C(=O)O)c(=O)c2cc(F)c(N3CCNC(CF)C3)cc21 (stereo not drawn)
13,215 to 217 °C,CC12CCCc3cc(NS(=O)(=O)c4ccc(C(=O)O)cc4)cc(c31)CCC2
14,63 to 65 °C,COc1c(CO)cccc1Oc1ccccc1C
15,> 250 °C,N#Cc1c[nH]c2cc(F)c(OCc3ccccc3)cc2c1=O
16,193 to 196 °C,CN(CCOc1ccc(CC(C(=O)O)S(=O)(=O)c2ccccc2)cc1)c1nc2ccccc2o1 (stereo not drawn)
17,72 to 74 °C,CCCCCCCCCCCCCCCCSCC(O)CO (stereo not drawn)
18,158 to 160 °C,Cc1nc2c(O[C@@H]3c4ccccc4C[C@H]3OS(C)(=O)=O)cccn2c1C=O (relative stereo)
19,215 to 218 °C,CC(C)(C)c1csc(NC(=O)c2ccn3c(=O)c(/C=C/C(=O)O)c(N4CCC(O)CC4)nc3c2)n1
20,219 to 220 °C,COc1ccc(C(O)(C2CC2)C2CC2)c2c1nc1n2CCCN1c1ccc(Cl)cc1Cl
21,103 to 108 °C,CC(=O)N1CCCC1CN1C(=O)C2(COc3cc4c(cc32)CCO4)c2ccccc21 (stereo not drawn)
22,188 to 191 °C,CCc1cc(C(=O)OC)nn1C
